Measurements: US11053204B2, “Pyrimidinyloxy benzene derivatives as herbicides” (FMC Corporation, priority 2015, dated 2021)

Legend:
Format in all cases: in vivo
[1] = tested on: foxtail, giant (giant foxtail, Setaria faberii); assay: Test C postemergence, plant response rating; details: Setaria faberi, post-emergence
How it was run: (§1)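 Visual injury score, 0 = no effect, 100 = complete control, assigned against untreated controls after 13 to 15 d in the greenhouse. Compounds were applied in a surfactant-containing non-phytotoxic solvent mix, preemergence to seeded loam/sand or silt loam soil, or postemergence to 1- to 4-leaf plants (2 to 18 cm).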

[2] = tested on: waterhemp (common waterhemp, Amaranthus rudis); assay: Test C postemergence, plant response rating; details: for Plant response rating, Waterhemp: scale 0 to 100; for Waterhemp plant response rating: scale 0 to 100 (0 no effect, 100 complete control)
How it was run: as §1

[3] = tested on: blackgrass (Alopecurus myosuroides); assay: Test C postemergence, plant response rating; details: Alopecurus myosuroides, post-emergence
How it was run: as §1

[4] = tested on: soybean (Glycine max); assay: Test C postemergence, plant response rating; details: Glycine max, post-emergence
How it was run: as §1

[5] = tested on: galium (catchweed bedstraw, Galium aparine); assay: Test C postemergence, plant response rating; details: Galium, post-emergence
How it was run: as §1

[6] = tested on: wheat (winter wheat, Triticum aestivum); assay: Test C postemergence, plant response rating; details: Triticum aestivum, post-emergence
How it was run: as §1

[7] = tested on: ryegrass, Italian (Italian ryegrass, Lolium multiflorum); assay: Test C postemergence, plant response rating; details: Lolium multiflorum, post-emergence
How it was run: as §1

[8] = tested on: oilseed rape (Brassica napus); assay: Test C postemergence, plant response rating; details: Brassica napus, post-emergence
How it was run: as §1

[9] = tested on: chickweed (common chickweed, Stellaria media); assay: Test C postemergence, plant response rating; details: Stellaria media, post-emergence
How it was run: as §1

[10] = tested on: wheat (Triticum aestivum); assay: Test A postemergence, visual injury rating; details: Triticum aestivum, post-emergence, 240 h, 0 is no effect, 100 is complete control, read-out: Wheat plant response rating (0 to 100 scale)
How it was run: (§2)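 Visual 0–100 rating (100 = complete control) taken about 10 d post-treatment relative to untreated checks. Preemergence: directed soil spray on sown loam/sand pots. Postemergence: seedlings 2–10 cm, 1–2 leaf. Non-phytotoxic solvent formulation with surfactant.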

[11] = tested on: ragweed (common ragweed, Ambrosia elatior); assay: Test A postemergence, visual injury rating; details: Ambrosia artemisiifolia, post-emergence, 240 h, 0 is no effect, 100 is complete control, read-out: Ragweed plant response rating (0 to 100 scale)
How it was run: as §2

[12] = tested on: pigweed (Amaranthus retroflexus); assay: Test A postemergence, visual injury rating; details: Amaranthus retroflexus, post-emergence, 240 h, 0 is no effect, 100 is complete control, read-out: Pigweed plant response rating (0 to 100 scale)
How it was run: as §2

[13] = tested on: giant foxtail (Setaria faberii); assay: Test A postemergence, visual injury rating; details: Setaria faberi, post-emergence, 240 h, 0 is no effect, 100 is complete control, read-out: Foxtail, Giant plant response rating (0 to 100 scale)
How it was run: as §2

[14] = tested on: blackgrass (Alopecurus myosuroides); assay: Test A postemergence, visual injury rating; details: Alopecurus myosuroides, post-emergence, 240 h, 0 is no effect, 100 is complete control, read-out: Blackgrass plant response rating (0 to 100 scale)
How it was run: as §2

[15] = tested on: barnyardgrass (Echinochloa crus-galli); assay: Test A postemergence, visual injury rating; details: Echinochloa crus-galli, post-emergence, 240 h, 0 is no effect, 100 is complete control, read-out: Barnyardgrass plant response rating (0 to 100 scale)
How it was run: as §2

[16] = tested on: galium (catchweed bedstraw, Galium aparine); assay: Test A postemergence, visual injury rating; details: Galium, post-emergence, 240 h, 0 is no effect, 100 is complete control, read-out: Galium plant response rating (0 to 100 scale)
How it was run: as §2

[17] = tested on: Italian ryegrass (Lolium multiflorum); assay: Test A postemergence, visual injury rating; details: Lolium multiflorum, post-emergence, 240 h, 0 is no effect, 100 is complete control, read-out: Ryegrass, Italian plant response rating (0 to 100 scale)
How it was run: as §2

[18] = tested on: corn (Zea mays); assay: Test A postemergence, visual injury rating; details: Zea mays, post-emergence, 240 h, 0 is no effect, 100 is complete control, read-out: Corn plant response rating (0 to 100 scale)
How it was run: as §2

[19] = tested on: kochia (Kochia scoparia); assay: Test A postemergence, visual injury rating; details: Bassia scoparia, post-emergence, 240 h, 0 is no effect, 100 is complete control, read-out: Kochia plant response rating (0 to 100 scale)
How it was run: as §2

[20] = 62 g ai/ha, scale 0 to 100 (0 no effect, 100 complete control)
[21] = 125 g ai/ha, scale 0 to 100 (0 no effect, 100 complete control)

Q: Which results are given for `O=C(OCC(F)(F)C(F)(F)F)c1c(Br)cccc1Oc1ncc(Cl)cn1` [Compound 23, 2,2,3,3,3-pentafluoropropyl 2-bromo-6-[(5-chloro-2-pyrimidinyl)oxy]benzoate]?
A: pest or weed control at 16 g/ha ([1]; 16 g ai/ha, scale 0 to 100): 10%; pest or weed control at 31 g/ha ([1]; 31 g ai/ha, scale 0 to 100): 35%; pest or weed control at 62 g/ha [1, 20]: 25%; pest or weed control at 125 g/ha [1, 21]: 30%; Plant response rating, Waterhemp ([2]; 16 g ai/ha): 80; Plant response rating, Waterhemp ([2]; 31 g ai/ha): 90; Waterhemp plant response rating ([2]; 62 g ai/ha): 85; Waterhemp plant response rating ([2]; 125 g ai/ha): 95; pest or weed control at 16 g/ha ([3]; 16 g ai/ha, scale 0 to 100): 0%; pest or weed control at 31 g/ha ([3]; 31 g ai/ha, scale 0 to 100): 5%; pest or weed control at 62 g/ha [3, 20]: 15%; pest or weed control at 125 g/ha [3, 21]: 20%; plant injury at 16 g/ha ([4]; 16 g ai/ha, scale 0 to 100): 20%; plant injury at 31 g/ha ([4]; 31 g ai/ha, scale 0 to 100): 30%; plant injury at 62 g/ha [4, 20]: 70%; plant injury at 125 g/ha [4, 21]: 35%; pest or weed control at 16 g/ha ([5]; 16 g ai/ha, scale 0 to 100): 50%; pest or weed control at 31 g/ha ([5]; 31 g ai/ha, scale 0 to 100): 55%; pest or weed control at 62 g/ha [5, 20]: 55%; pest or weed control at 125 g/ha [5, 21]: 80%; plant injury at 16 g/ha ([6]; 16 g ai/ha, scale 0 to 100): 0%; plant injury at 31 g/ha ([6]; 31 g ai/ha, scale 0 to 100): 0%; plant injury at 62 g/ha ([6]; 62 g ai/ha, scale 0 to 100 (0 no effect, 100 complete control), read-out: Wheat plant response rating): 0%; plant injury at 125 g/ha [6, 21]: 0%; pest or weed control at 16 g/ha ([7]; 16 g ai/ha, scale 0 to 100): 0%; pest or weed control at 31 g/ha ([7]; 31 g ai/ha, scale 0 to 100): 0%; pest or weed control at 62 g/ha [7, 20]: 5%; pest or weed control at 125 g/ha [7, 21]: 5%; plant injury at 16 g/ha ([8]; 16 g ai/ha, scale 0 to 100): 5%; plant injury at 31 g/ha ([8]; 31 g ai/ha, scale 0 to 100): 5%; plant injury at 62 g/ha [8, 20]: 50%; plant injury at 125 g/ha [8, 21]: 35%; pest or weed control at 16 g/ha ([9]; 16 g ai/ha, scale 0 to 100): 5%; pest or weed control at 31 g/ha ([9]; 31 g ai/ha, scale 0 to 100): 50%; pest or weed control at 62 g/ha [9, 20]: 50%; pest or weed control at 125 g/ha [9, 21]: 85%; plant injury at 125 g/ha ([10]; 125 g ai/ha): 0%; plant injury at 500 g/ha ([10]; 500 g ai/ha): 10%; pest or weed control at 125 g/ha ([11]; 125 g ai/ha): 0%; pest or weed control at 500 g/ha ([11]; 500 g ai/ha): 10%; pest or weed control at 125 g/ha ([12]; 125 g ai/ha): 100%; pest or weed control at 500 g/ha ([12]; 500 g ai/ha): 100%; pest or weed control at 125 g/ha ([13]; 125 g ai/ha): 30%; pest or weed control at 500 g/ha ([13]; 500 g ai/ha): 80%; pest or weed control at 125 g/ha ([14]; 125 g ai/ha): 10%; pest or weed control at 500 g/ha ([14]; 500 g ai/ha): 50%; pest or weed control at 125 g/ha ([15]; 125 g ai/ha): 10%; pest or weed control at 500 g/ha ([15]; 500 g ai/ha): 50%; pest or weed control at 125 g/ha ([16]; 125 g ai/ha): 90%; pest or weed control at 500 g/ha ([16]; 500 g ai/ha): 100%; pest or weed control at 125 g/ha ([17]; 125 g ai/ha): 10%; pest or weed control at 500 g/ha ([17]; 500 g ai/ha): 70%; plant injury at 125 g/ha ([18]; 125 g ai/ha): 10%; plant injury at 500 g/ha ([18]; 500 g ai/ha): 20%; pest or weed control at 125 g/ha ([19]; 125 g ai/ha): 80%; pest or weed control at 500 g/ha ([19]; 500 g ai/ha): 100%
